Experimental data from patent US20170051112A1, “RESIN COMPOSITION SUITABLE FOR PRINTING AND PRINTING METHOD UTILIZING THE SAME” (MONTANUNIVERSITÄT LEOBEN, priority 2014, published 2017).

Key:
[1] = Maximum reaction speed by Photo Differential Scanning Calorimetry (Photo-DSC); conditions: yne monomer with TMPMP and 5 wt.-% photoinitiator mixture (comparatives without thiol); 1 W/cm^2, 50° C., nitrogen
Description: The maximum reaction speed of various monomers was evaluated by means of Photo Differential Scanning Calorimetry (Photo-DSC). 8 mg of the respective test mixtures consisting of yne monomer (as shown in the following table 1) and thiol monomer (trimethylpropane tri(3-mercaptopropionate), TMPMP) as well as 5 wt.-% of a photoinitiator mixture (2-hydroxy-2-methyl-1-phenyl propanone/diphenyl 2,4,6-trimethylbenzoyl phosphane oxide, 50 wt.-%/50 wt.-%) were provided. As comparative test mixtures, acrylate and methacrylate without thiol monomer, but together with 5 wt.-% of the same photoinitiator mixture were provided. The test mixtures were placed in a crucible of aluminium and irradiated with an Omnicure® lamp at an intensity of 1 W/cm^2 at 50° C. under a nitrogen gas atmosphere to thereby cure the test mixtures.
The times (tmax) for reaching the maximum reaction enthalpy indicate the reactivity of the photo-reactive systems. FIG. 1 is a graphical illustration of the test results (tmax) further showing the chemical structural formulas of the tested alkyne monomers and comparative (meth)acryl monomers.

[2] = test system: L929 mice fibroblast cells; test: Cytotoxicity (residual protein content of the cells); assay type: cell-based; conditions: for EC50: concentration at which 50% of the L929 cells are damaged; for EC50 / Concentration limit: incubation 48 h; for Cytotoxicity, in words: L929 cells; for Concentration limit: toxicological concentration limit: reduction of protein content of L929 cells by more than 30% relative to negative control
Description: The cytotoxicity of various monomers was determined by a certified laboratory by means of L929 mice fibroblast cells. As a (toxic) positive control, Triton X 100 was added to L929 cells with a final concentration of 1% (v/v). As a (non-toxic) negative control, a cell culture medium was used.
After completion of the incubation, the residual protein content of the cells was determined. A reduction of the protein content from L929 cells by more than 30%, relative to the negative control, was evaluated as cytotoxic (which corresponds to the toxicological concentration limit). From this, the half maximal effective concentration (EC50), at which 50% of the cells are damaged, can be calculated.

[3] = Measurement of viscosity (cone-and-plate viscosimeter); assay type: physicochemical; conditions: for Viscosity at 25° C.: constant shear rate 300 s^-1, 25° C.; for Viscosity, in words: 25° C.
Description: For measuring the viscosity, an MC 200 cone-and-plate viscosimeter from Anton Paar GmbH (cone unit MK 22/50 mm, 10) was used. First, the shear rate was varied with a stepped slope and subsequently the viscosity was determined at a constant shear rate (300 s^−1) every 30 seconds. The measurement was carried out at 25° C.

| Molecule | tmax (time for reaching the maximum reaction enthalpy) [1] [s] | EC50 [2] [µM] | Viscosity at 25° C. [3] [mPa*s] | Cytotoxicity, in words [2] | Concentration limit [2] [µM] | Viscosity, in words [3] | EC50 ([2]; Mus musculus) [µM] |
| --- | --- | --- | --- | --- | --- | --- | --- |
| 1,4-butanediol dibut-1-ynyl carbonate | 2.46 | – | – | – | – | – | – |
| 1,4-butanediol dipropargyl carbonate | 3.00 | 550 | – | – | – | – | – |
| C=CC(=O)OCCCCOC(=O)C=C [1,4-butanediol diacrylate, reference compound] | 1.80 | – | 4.3 | particularly cytotoxic | <160 | – | – |
| CCC#COCCCCOC#CCC [1,4-butanediol dibut-1-ynyl ether] | 2.22 | – | 6.1 | excellently low cytotoxicity | >1100 | relatively low values | 2000 |
| C=C(C)C(=O)OCCCCOC(=O)C(=C)C [1,4-butanediol dimethacrylate, reference compound] | 6.72 | – | 4.6 | particularly cytotoxic | <160 | – | – |
| C#CCOCCCCOCC#C [1,4-butanediol dipropargyl ether] | 5.12 | – | 4.7 | excellently low cytotoxicity | >1600 | relatively low values | 3000 |
| CCC#COCCOC(COCC)OC#CCC (centres unmarked) [1,4-triethyleneglycol dibut-1-ynyl ether] | 2.46 | – | 17.2 | – | – | – | – |
| C#CCOC(=O)OCC(CC)(COC(=O)OCC#C)COC(=O)OCC#C [Trimethylolpropane tripropargyl carbonate] | 1.92 | – | – | – | – | – | – |
